Tests used:
CASOB (Sicklepod) = assay: Postemergence herbicidal evaluation; format: in vivo, Cassia obtusifolia
How it was run: (§1)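 Visual 0–9 rating versus control (stand, vigor, malformation, size, chlorosis, overall appearance), taken four to five weeks post-spray. Two-week-old seedlings received roughly 0.0156–0.500 kg/ha active in acetone/water (50/50) with 0.5% TWEEN 20 via nozzle at 40 psi.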

[1] = system: CHEAL (Lambsquarters, Common); assay: Postemergence herbicidal evaluation; format: in vivo, Chenopodium album
How it was run: as §1

GALAP (Galium) = assay: Postemergence herbicidal evaluation; format: in vivo, Galium aparine
How it was run: as §1

ORYSAT (Rice, Tebonnet) [2] = assay: Postemergence herbicidal evaluation; format: in vivo, Oryza sativa, (L.) Tebonnet
How it was run: as §1

ZEAMX (Corn, Field) = assay: Postemergence herbicidal evaluation; format: in vivo, Zea mays
How it was run: as §1

AMBEL (Ragweed, Common) = assay: Preemergence herbicidal evaluation; format: in vivo, Ambrosia artemisifolia; settings: rated 4-5 weeks after treatment
How it was run: (§2)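 Rating at 4–5 wk post-spray on a 0–9 visual scale vs control. Application: aqueous acetone, ~0.0156–0.500 kg/ha, to soil surface after seeding, preemergence.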

SETVI (Foxtail, Green) = assay: Preemergence herbicidal evaluation; format: in vivo, Setaria viridis; settings: rated 4-5 weeks after treatment
How it was run: as §2

[3] = system: GLXMAW (Soybean, Williams); assay: Preemergence herbicidal evaluation; format: in vivo, Glycine max, (L.) Merr. cv Williams; settings: rated 4-5 weeks after treatment
How it was run: as §2

ORYSAT (Rice, Tebonnet) [4] = assay: Preemergence herbicidal evaluation; format: in vivo, Oryza sativa, (L.) Tebonnet; settings: rated 4-5 weeks after treatment
How it was run: as §2

CYPSE (Flatsedge) [5] = assay: Preemergence weed control under flooded paddy conditions; format: in vivo, Cyperus serotinus; settings: rated 3-4 weeks after treatment
How it was run: (§3)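 Visual injury scored 0-9 against control three to four weeks post-treatment, greenhouse-grown. Application: acetone/water (50/50) solutions dosed directly into flood water (1.5-3 cm over silt loam, planted top 0.5 cm), roughly 0.0313 to 0.500 kg/ha active ingredient.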

MOOVA (Monochoria) = assay: as above; format: in vivo, Monochoria vaginalis; settings: rated 3-4 weeks after treatment
How it was run: as §3

CYPIR (Rice Flatsedge) = assay: Postemergence weed control under flooded paddy conditions; format: in vivo, Cyperus iria; settings: postemergence weeds
How it was run: (§4)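 With weeds 3 to 5 cm tall and rice at the 1.5 to 2.5 leaf stage, containers were flooded and water held 1.5 to 3 cm above soil. Compounds in 50/50 v/v aqueous/acetone went into the flood water at about 0.0313 to 0.500 kg/ha a.i. Effects were visually rated 0–9 against controls after three to four weeks in the greenhouse.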

CYPSE (Flatsedge) [6] = assay: as above; format: in vivo, Cyperus serotinus; settings: postemergence weeds
How it was run: as §4

[7] = system: SAGPY (Arrowhead (Pygmaea)); assay: as above; format: in vivo, Sagittaria pygmaea; settings: postemergence weeds
How it was run: as §4

[8] = Rate 0.0625 kg/ha, rated 3 to 4 weeks after treatment
[9] = rate 0.1250 kg/ha, 3-4 weeks after treatment
[10] = rate 0.2500 kg/ha, 3-4 weeks after treatment

C#CCOC(=O)CC1SC(=Nc2cc(-n3c(=O)cc(C(F)(F)F)n(C)c3=O)c(F)cc2Cl)N(CC(=O)OCC)C1=O (stereo not drawn) [Compound 59, 2-{{2-Chloro-5-[3,6-dihydro-3-methyl-2,6-dioxo-4-(trifluoromethyl)-1(2H)-pyrimidinyl]-4-fluorophenyl}imino}-4-oxo-3,5-thiazolidinediacetic acid, 3-ethyl (2-propynyl) ester]
5.5: Postemergence herbicidal rating ORYSAT (ORYSAT (Rice, Tebonnet) [2]; Rate 0.0630 kg/ha)
9.0: Postemergence herbicidal rating CASOB (CASOB (Sicklepod); Rate 0.0315 kg/ha) | Postemergence herbicidal rating CASOB (CASOB (Sicklepod); Rate 0.0630 kg/ha) | Postemergence herbicidal rating CHEAL ([1]; Rate 0.0158 kg/ha) | Postemergence herbicidal rating CHEAL ([1]; Rate 0.0315 kg/ha) | Postemergence herbicidal rating CHEAL ([1]; Rate 0.0630 kg/ha) | Postemergence herbicidal rating GALAP (GALAP (Galium); Rate 0.0630 kg/ha) | Preemergence herbicidal rating AMBEL (AMBEL (Ragweed, Common); rate 0.1250 kg/ha) | Preemergence herbicidal rating AMBEL (AMBEL (Ragweed, Common); rate 0.2500 kg/ha) | Preemergence herbicidal rating AMBEL (AMBEL (Ragweed, Common); rate 0.5000 kg/ha) | Preemergence herbicidal rating SETVI (SETVI (Foxtail, Green); rate 0.2500 kg/ha) | Preemergence herbicidal rating SETVI (SETVI (Foxtail, Green); rate 0.5000 kg/ha) | Preemergence herbicidal rating GLXMAW ([3]; rate 0.5000 kg/ha) | MOOVA herbicidal effect rating (MOOVA (Monochoria); 0.2500 kg/ha) | Herbicidal rating CYPIR (CYPIR (Rice Flatsedge); [10])
6.0: Postemergence herbicidal rating GALAP (GALAP (Galium); Rate 0.0158 kg/ha) | Postemergence herbicidal rating GALAP (GALAP (Galium); Rate 0.0315 kg/ha) | Postemergence herbicidal rating ORYSAT (ORYSAT (Rice, Tebonnet) [2]; Rate 0.0315 kg/ha)
0.0: Preemergence herbicidal rating SETVI (SETVI (Foxtail, Green); rate 0.0156 kg/ha) | Preemergence herbicidal rating SETVI (SETVI (Foxtail, Green); rate 0.0313 kg/ha) | Preemergence herbicidal rating ORYSAT (ORYSAT (Rice, Tebonnet) [4]; rate 0.0156 kg/ha) | Preemergence herbicidal rating ORYSAT (ORYSAT (Rice, Tebonnet) [4]; rate 0.0313 kg/ha) | CYPSE herbicidal effect rating (CYPSE (Flatsedge) [5]; 0.0625 kg/ha) | CYPSE herbicidal effect rating (CYPSE (Flatsedge) [5]; 0.1250 kg/ha) | MOOVA herbicidal effect rating (MOOVA (Monochoria); 0.0625 kg/ha) | MOOVA herbicidal effect rating (MOOVA (Monochoria); 0.1250 kg/ha) | Herbicidal rating CYPIR (CYPIR (Rice Flatsedge); [8]) | Herbicidal rating CYPIR (CYPIR (Rice Flatsedge); [9]) | Herbicidal rating CYPSE (CYPSE (Flatsedge) [6]; [8]) | Herbicidal rating CYPSE (CYPSE (Flatsedge) [6]; [9]) | Herbicidal rating SAGPY [7, 8] | Herbicidal rating SAGPY [7, 9]
4.0: Preemergence herbicidal rating GLXMAW ([3]; rate 0.1250 kg/ha)
2.5: Preemergence herbicidal rating ORYSAT (ORYSAT (Rice, Tebonnet) [4]; rate 0.1250 kg/ha)
7.5: Postemergence herbicidal rating ZEAMX (ZEAMX (Corn, Field); Rate 0.0158 kg/ha)
8.5: Postemergence herbicidal rating ZEAMX (ZEAMX (Corn, Field); Rate 0.0630 kg/ha)
4.5: Postemergence herbicidal rating ORYSAT (ORYSAT (Rice, Tebonnet) [2]; Rate 0.0158 kg/ha)
2.0: Preemergence herbicidal rating AMBEL (AMBEL (Ragweed, Common); rate 0.0156 kg/ha)
6.5: Preemergence herbicidal rating AMBEL (AMBEL (Ragweed, Common); rate 0.0625 kg/ha)
3.0: Postemergence herbicidal rating CASOB (CASOB (Sicklepod); Rate 0.0158 kg/ha) | Herbicidal rating SAGPY [7, 10]
3.5: Preemergence herbicidal rating AMBEL (AMBEL (Ragweed, Common); rate 0.0313 kg/ha) | Preemergence herbicidal rating ORYSAT (ORYSAT (Rice, Tebonnet) [4]; rate 0.2500 kg/ha)
8.0: Postemergence herbicidal rating ZEAMX (ZEAMX (Corn, Field); Rate 0.0315 kg/ha) | Preemergence herbicidal rating SETVI (SETVI (Foxtail, Green); rate 0.1250 kg/ha)
7.0: Preemergence herbicidal rating GLXMAW ([3]; rate 0.2500 kg/ha) | Preemergence herbicidal rating ORYSAT (ORYSAT (Rice, Tebonnet) [4]; rate 0.5000 kg/ha) | CYPSE herbicidal effect rating (CYPSE (Flatsedge) [5]; 0.2500 kg/ha) | Herbicidal rating CYPSE (CYPSE (Flatsedge) [6]; [10])
1.0: Preemergence herbicidal rating GLXMAW ([3]; rate 0.0156 kg/ha) | Preemergence herbicidal rating GLXMAW ([3]; rate 0.0625 kg/ha)
1.5: Preemergence herbicidal rating SETVI (SETVI (Foxtail, Green); rate 0.0625 kg/ha)
0.5: Preemergence herbicidal rating GLXMAW ([3]; rate 0.0313 kg/ha) | Preemergence herbicidal rating ORYSAT (ORYSAT (Rice, Tebonnet) [4]; rate 0.0625 kg/ha)

Reference: patent US20020137929A1, “1 - (3-heterocyclylphenyl) isothiourea, -isourea, -guanidine and -amidine herbicidal agents” (Intellectual Property Department, BASF Aktiengesellschaft, priority 1998, published 2002)
